Data taken from patent publication US8501737B2, “Piperazinyl-, piperidinyl- and morpholinyl-derivatives as novel inhibitors of histone deacetylase” (Janssen Pharmaceutica N.V., priority 2002, dated 2013).
In brackets after ≈: the same amount, converted by molar mass. Where two headings read alike, the source gives them in different places.

Tests used:
[1] = target: histone deacetylase (HeLa nuclear extracts); experiment: In vitro assay for inhibition of histone deacetylase (HeLa nuclear extracts, radiolabeled histone H4 peptide substrate); format: biochemical; conditions: HeLa nuclear extracts 60 μg/ml, 30 min, pH 7.4
Method: The in vitro assay for inhibition of histone deacetylase (see example C.1) measures the inhibition of HDAC enzymatic activity obtained with the compounds of formula (I).
HeLa nuclear extracts (supplier: Biomol) were incubated at 60 μg/ml with 2×10^−8 M of radiolabeled peptide substrate. As a substrate for measuring HDAC activity a synthetic peptide, i.e. the amino acids 14-21 of histone H4, was used. The substrate is biotinylated at the NH2-terminal part with a 6-aminohexanoic acid spacer, and is protected at the COOH-terminal part by an amide group and specifically [^3H]-acetylated at lysine 16. The substrate, biotin-(6-aminohexanoic)Gly-Ala-([^3H]-acetyl-Lys-Arg-His-Arg-Lys-Val-NH2), was added in a buffer containing 25 mM Hepes, 1 M sucrose, 0.11 mg/ml BSA and 0.01% Triton X-100 at pH 7.4. After 30 min the deacetylation reaction was terminated by the addition of HCl and acetic acid. (final concentration 0.035 mM and 3.8 mM respectively). After stopping the reaction, the free ^3H-acetate was extracted with ethylacetate. After mixing and centrifugation, the radioactivity in an aliquot of the upper (organic) phase was counted in a β-counter.
For each experiment, controls (containing HeLa nuclear extract and DMSO without compound), a blank incubation (containing DMSO but no HeLa nuclear extract or compound) and samples (containing compound dissolved in DMSO and HeLa nuclear extract) were run in parallel. In first instance, compounds were tested at a concentration of 10^−5M. […] In each test the blank value was subtracted from both the control and the sample values. The control sample represented 100% of substrate deactylation. For each sample the radioactivity was expressed as a percentage of the mean value of the controls. […] Herein the effects of test compounds are expressed as pIC50 (the negative log value of the IC50-value).

[2] = system: human A2780 ovarian carcinoma cells; experiment: Antiproliferative activity on A2780 cells (MTT-based assay); format: cell-based; conditions: four days of incubation; for IC50: Homo sapiens, A2780, 96 h, read-out: Cellular activity pIC50 (converted)
Method: Cellular activity of the compounds of formula (I) was determined on A2780 tumour cells using a […] assay for cell toxicity or survival (Mosmann Tim, Journal of Immunological Methods 65: 55-63, 1983)(see example C.2).
All compounds tested were dissolved in DMSO and further dilutions were made in culture medium. Final DMSO concentrations never exceeded 0.1% (v/v) in cell proliferation assays, Controls contained A2780 cells and DMSO without compound and blanks contained DMSO but no cells. MTT was dissolved at 5 mg/ml in PBS. A glycine buffer comprised of 0.1 M glycine and 0.1 M NaCl buffered to pH 10.5 with NaOH (1 N) was prepared (all reagents were from Merck).
The human A2780 ovarian carcinoma cells (a kind gift from Dr. T. C. Hamilton [Fox Chase Cancer Centre, Pennsylvania, USA]) were cultured in RPMI 1640 medium supplemented with 2 mM L-glutamine, 50 μg/ml gentamicin and 10% fetal calf serum. Cells were routinely kept as monolayer cultures at 37° C. in a humidified 5% CO2 atmosphere. Cells were passaged once a week using a trypsin/EDTA solution at a split ratio of 1:40. All media and supplements were obtained from Life Technologies. Cells were free of mycoplasma contamination as determined using the Gen-Probe Mycoplasma Tissue Culture kit (supplier: BioMérieux).
Cells were seeded in NUNC™ 96-well culture plates (Supplier: Life Technologies) and allowed to adhere to the plastic overnight. Densities used for plating were 1500 cells per well in a total volume of 200 μl medium. After cell adhesion to the plates, medium was changed and drugs and/or solvents were added to a final volume of 200 μl. Following four days of incubation, medium was replaced by 200 μl fresh medium and cell density and viability was assessed using an MTT-based assay. To each well, 25 μl MTT solution was added and the cells were further incubated for 2 hours at 37° C. The medium was then carefully aspirated and the blue MTT-formazan product was solubilized by addition of 25 μl glycine buffer followed by 100 μl of DMSO. […] Within an experiment, the results for each experimental condition are the mean of 3 replicate wells. For initial screening purposes, compounds were tested at a single fixed concentration of 10^−6 M. For active compounds, the experiments were repeated to establish full concentration-response curves. For each experiment, controls (containing no drug) and a blank incubation (containing no cells or drugs) were run in parallel. The blank value was subtracted from all control and sample values. For each sample, the mean value for cell growth (in absorbance units) was expressed as a percentage of the mean value for cell growth of the control. […] Herein the effects of test compounds are expressed as pIC50 (the negative log value of the IC50-value).

[3] = Kinetic solubility in aqueous media (nephelometer turbidity); format: physicochemical; conditions: aqueous buffer, kinetic from dmso stock; phosphate citrate buffer pH 7.4, dilution from 5 mM DMSO stock; read-out: Solubility Score
Method: Kinetic solubility in aqueous media measures the ability of a compound to stay in aqueous solution upon dilution (see example C.3).
DMSO-stock solutions are diluted with a single aqueous buffer solvent in 3 consecutive steps. For every dilution turbidity is measured with a nephelometer.
In the first dilution step, 10 μl of a concentrated stock-solution of the active compound, solubilized in DMSO (5 mM), was added to 100 μl phosphate citrate buffer pH 7.4 and mixed. In the second dilution step, an aliquot (20 μl) of the first dilution step was further dispensed in 100 μl phosphate citrate buffer pH 7.4 and mixed. Finally, in the third dilution step, a sample (20 μl) of the second dilution step was further diluted in 100 μl phosphate citrate buffer pH 7.4 and mixed. All dilutions were performed in 96-well plates. Immediately after the last dilution step the turbidity of the three consecutive dilution steps were measured with a nephelometer. Dilution was done in triplicate for each compound to exclude occasional errors. Based on the turbidity measurements a ranking is performed into 3 classes. Compounds with high solubility obtained a score of 3 and for this compounds the first dilution is clear. Compounds with medium solubility obtained a score of 2. For these compounds the first dilution is unclear and the second dilution is clear. […] The solubility of 11 compounds was measured.

[4] = not given; remark: listed apart in the source

| Enzyme activity pIC50 [1] | IC50 [2] [nM] | solubility [3] [µM] | melting point [°C] | Cellular activity pIC50 [2] | % metabolism ([4]; human, 15 min, 5 μM) [%] | Structure (SMILES) | % metabolism ([4]; after 15 min incubation with microsomes (1 mg/ml), compound 5 μM, 37 degrees Celsius) [%] |
| --- | --- | --- | --- | --- | --- | --- | --- |
| 7.361 | 1690 |  |  |  |  | CN1CCN(c2ncc(C(=O)NO)cn2)CC1CNS(=O)(=O)c1ccc2ccccc2c1 (centres unmarked) [Compound 13] |  |
| 7.65 | 1080 | > 454 | 210 |  |  | O=C(NO)c1cnc(N2CCCC(CNS(=O)(=O)c3ccc4ccccc4c3)C2)nc1 (centres unmarked) [Compound 10] |  |
|  | 243 |  |  |  |  | O=C(NO)c1cnc(N2CCCC(NS(=O)(=O)c3ccc4ccccc4c3)C2)nc1 (centres unmarked) [Compound 14] |  |
| 7.609 | > 10000 | > 454 | 246 |  |  | O=C(NO)c1cnc(N2CCOC(CNC(=O)c3ccc4ccccc4c3)C2)nc1 (centres unmarked) [Compound 9] |  |
| 7.553 | > 10000 | > 454 | 176 |  |  | O=C(NO)c1cnc(N2CC[C@H](O)[C@H](CNS(=O)(=O)c3ccc4ccccc4c3)C2)nc1 [Compound 11] |  |
| 7.528 | 977 | 75.8 to 454 (≈ 35.6 to 213 µg/mL) |  |  |  | O=C(NO)c1cnc(N2CCO[C@H](CNS(=O)(=O)c3ccc(-c4ccccc4)cc3)C2)nc1 [Compound 12] |  |

The next lines start with the compound.

| Structure (SMILES) | Enzyme activity pIC50 [1] | IC50 [2] [nM] | solubility [3] [µM] | melting point [°C] | Cellular activity pIC50 [2] | % metabolism ([4]; human, 15 min, 5 μM) [%] | % metabolism ([4]; after 15 min incubation with microsomes (1 mg/ml), compound 5 μM, 37 degrees Celsius) [%] |
| --- | --- | --- | --- | --- | --- | --- | --- |
| O=C(NO)c1cnc(N2CCOC(CNC(=O)c3ccc(-c4ccccc4)cc3)C2)nc1 (centres unmarked) [Compound 8] | 7.487 | 36.5 | > 454 | 290 |  |  |  |
| O=C(NO)c1cnc(N2CCO[C@H](CNS(=O)(=O)c3ccc(-c4ccccc4)cc3)C2)nc1 [Compound 1] | 7.723 |  |  | 164 | 6.232 |  |  |
| O=C(NO)c1ccc(N2CCOC(CNS(=O)(=O)c3ccc4ccccc4c3)C2)nc1 (centres unmarked) [Compound 7] | 7.323 | 2040 | > 454 | 157 |  |  |  |
| COc1cc(N)c(Cl)cc1C(=O)NC1CCN(CCCOc2ccc(F)cc2)CC1OC (centres unmarked) [Cisapride] |  |  |  |  |  | 45 |  |
| O=C(NO)c1cnc(N2CCOC(CNS(=O)(=O)c3ccc4ccccc4c3)C2)nc1 (centres unmarked) [Compound 6] | 7.421 | 413 | > 454 | 179 |  |  |  |
| O=C(NO)c1cnc(N2CCOC(CNS(=O)(=O)c3ccc(-c4ccccc4)cc3)C2)nc1 (centres unmarked) [Compound 4] | 8.097 | 565 | < 75.8 | 163 |  |  |  |
| O=C(NO)c1cnc(N2CCNC(CNS(=O)(=O)c3ccc4ccccc4c3)C2)nc1 (centres unmarked) [Compound 2] | 8.059 | 2040 | < 75.8 | 243 |  |  |  |
| CCCO [propanol] |  |  |  |  |  |  | 25 |
| O=C(NO)c1cnc(N2CCN(Cc3ccccc3)C(CNS(=O)(=O)c3ccc4ccccc4c3)C2)nc1 (centres unmarked) [Compound 3] | 7.647 | 2400 | < 75.8 | 135 |  |  |  |
| O=C(NO)c1ccc(N2CCOC(CNS(=O)(=O)c3ccc(-c4ccccc4)cc3)C2)nc1 (centres unmarked) [Compound 5] | 7.549 | 2050 |  | 210 |  |  |  |
